Results from US9884819B2, “Tetrahydrocarbazole inhibitors of SIRT1 receptors” (Auspex Pharmaceuticals, Inc., priority 2016, dated 2018).

Legend:
CYP3A4 = CYP3A4 (Homo sapiens, UniProt P08684); assay: In vitro metabolism using human cytochrome P450 enzymes (CYP3A4); details: for Clint: Cyp 3A4; for Percent Remaining (%) 0 min: Cyp 3A4, 0 min; for Percent Remaining (%) 0 min / Percent Remaining (%) 15 min / Percent Remaining (%) 30 min / Percent Remaining (%) 45 min / Percent Remaining (%) 60 min: mean; for Percent Remaining (%) 15 min: Cyp 3A4, 15 min; for Percent Remaining (%) 30 min: Cyp 3A4, 30 min; for Percent Remaining (%) 45 min: Cyp 3A4, 45 min; for Percent Remaining (%) 60 min: Cyp 3A4, 60 min; for half-life at 0.2 mM: human, pH 7.4
CYP3A4, sequence (P08684 whole entry): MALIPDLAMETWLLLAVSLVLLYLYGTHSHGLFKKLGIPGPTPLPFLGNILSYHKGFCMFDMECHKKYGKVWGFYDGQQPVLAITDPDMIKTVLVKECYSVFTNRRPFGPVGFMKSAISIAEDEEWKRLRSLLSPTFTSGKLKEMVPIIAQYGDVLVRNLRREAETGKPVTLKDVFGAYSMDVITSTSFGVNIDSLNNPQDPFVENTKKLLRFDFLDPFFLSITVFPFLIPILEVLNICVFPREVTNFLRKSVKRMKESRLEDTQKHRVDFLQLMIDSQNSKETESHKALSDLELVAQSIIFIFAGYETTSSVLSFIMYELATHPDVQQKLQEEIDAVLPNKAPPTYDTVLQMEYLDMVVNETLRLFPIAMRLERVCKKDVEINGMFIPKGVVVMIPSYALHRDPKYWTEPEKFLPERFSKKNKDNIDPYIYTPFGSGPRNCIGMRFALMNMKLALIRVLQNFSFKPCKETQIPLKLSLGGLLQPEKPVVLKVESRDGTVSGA

[1] = cited from earlier work
[2] = In vitro human liver microsomal stability assay; format: in vitro ADME; details: for Percent Remaining (%) 0 min / Percent Remaining (%) 15 min / Percent Remaining (%) 30 min / Percent Remaining (%) 60 min / Percent Remaining (%) 120 min: human liver microsomes 2 mg/mL, 1 μM compound; for Percent Remaining (%) 0 min / Percent Remaining (%) 15 min / Percent Remaining (%) 30 min / Percent Remaining (%) 60 min / Percent Remaining (%) 120 min / Percent Remaining (%) 120 min w/o NADPH: mean; for Percent Remaining (%) 120 min w/o NADPH: 120 min without NADPH; for CLint scaled at 1 μM / half-life at 1 μM: pH 7.4
Description: Human liver microsomal stability assays are conducted at 2 mg per mL liver microsome protein with an NADPH-generating system consisting of NADP (1 mM, pH 7.4), […] (5 mM, pH 7.4), and glucose-6-phosphate dehydrogenase (1 unit/mL). Test compounds were prepared as solutions in DMSO and added to the assay mixture (1 μM, final concentration in incubation) and were incubated at 37±1° C. […] Samples were centrifuged (920×g for 10 min at 10° C.) in 96-well plates. Supernatant fractions were analyzed by LC-MS/MS to determine the percent remaining and estimate the degradation half-life of the test compounds.

CYP1A2 = target: T1, CYP1A2 (Homo sapiens, UniProt P05177); assay: In vitro metabolism using human cytochrome P450 enzymes (CYP1A2); format: in vitro ADME; details: for Clint / half-life at 0.2 mM: Cyp 1A2; for Percent Remaining (%) 0 min: Cyp 1A2, 0 min; for Percent Remaining (%) 0 min / Percent Remaining (%) 15 min / Percent Remaining (%) 30 min / Percent Remaining (%) 45 min / Percent Remaining (%) 60 min: mean; for Percent Remaining (%) 15 min: Cyp 1A2, 15 min; for Percent Remaining (%) 30 min: Cyp 1A2, 30 min; for Percent Remaining (%) 45 min: Cyp 1A2, 45 min; for Percent Remaining (%) 60 min: Cyp 1A2, 60 min; for half-life at 0.2 mM: human, recombinant CYP1A2 (baculovirus expression system), pH 7.4
T1 construct: purchased BD Biosciences, San Jose, Calif
T1 sequence (P05177 1-516): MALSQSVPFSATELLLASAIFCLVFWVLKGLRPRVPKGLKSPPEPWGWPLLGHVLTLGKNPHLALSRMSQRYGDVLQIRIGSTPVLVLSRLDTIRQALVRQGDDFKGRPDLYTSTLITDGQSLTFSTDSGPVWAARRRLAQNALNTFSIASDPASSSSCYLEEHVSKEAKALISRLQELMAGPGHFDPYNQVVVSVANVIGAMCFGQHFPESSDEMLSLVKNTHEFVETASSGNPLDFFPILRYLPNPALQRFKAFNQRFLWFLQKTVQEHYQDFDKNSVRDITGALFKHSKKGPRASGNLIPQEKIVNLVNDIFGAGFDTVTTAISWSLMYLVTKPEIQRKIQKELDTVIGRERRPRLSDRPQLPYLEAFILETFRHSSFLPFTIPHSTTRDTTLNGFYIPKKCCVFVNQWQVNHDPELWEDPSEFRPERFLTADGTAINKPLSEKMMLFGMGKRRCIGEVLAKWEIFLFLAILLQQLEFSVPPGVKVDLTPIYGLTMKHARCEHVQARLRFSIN

R6/2 mouse = details: transgenic r6/2 mouse model; cited from earlier work
drosophila model of HD = details: cited from earlier work
[3] = recombinant CYP3A4 (baculovirus expression system)
[4] = human, single-dose phase, average
[5] = human, single-dose phase, range
[6] = human liver microsomes, degradation half-life

| Compound | Clint (CYP3A4) [mL/min/pmol] | Percent Remaining (%) 0 min (CYP3A4) [%] | Percent Remaining (%) 15 min (CYP3A4) | Percent Remaining (%) 30 min (CYP3A4) | Percent Remaining (%) 45 min (CYP3A4) | Percent Remaining (%) 60 min (CYP3A4) | half-life at 0.2 mM (CYP3A4; [3]) [min] | Percent Remaining (%) 0 min [2] [%] | Percent Remaining (%) 15 min [2] [%] | Percent Remaining (%) 30 min [2] [%] | Percent Remaining (%) 60 min [2] [%] | Percent Remaining (%) 120 min [2] [%] | Percent Remaining (%) 120 min w/o NADPH ([2]; human liver microsomes) [%] | CLint scaled at 1 μM ([2]; human liver microsomes) [mL/min/kg] | Clint (CYP1A2) [mL/min/pmol] | Percent Remaining (%) 0 min (CYP1A2) [%] | Percent Remaining (%) 15 min (CYP1A2) [%] | Percent Remaining (%) 30 min (CYP1A2) [%] | Percent Remaining (%) 45 min (CYP1A2) [%] | Percent Remaining (%) 60 min (CYP1A2) [%] | other results |
| --- | --- | --- | --- | --- | --- | --- | --- | --- | --- | --- | --- | --- | --- | --- | --- | --- | --- | --- | --- | --- | --- |
| NC(=O)C1CCCc2c1[nH]c1ccc(Cl)cc21 (stereo not shown) [Example 1, 6-chloro-2,3,4,9-tetrahydro-1H-carbazole-1-carboxamide] | 0.00013 | 100.00 | 63.43% | 55.02% | 54.21% | 51.13% | 52.5 | 100 | 93.37 | 90.46 | 73.66 | 52.94 | 102.02 | 13.6 | 0.0002 | 100.00 | 46.28 | 24.21 | 16.02 | 11.55 | Intersubject variability (% CV) in AUC(0,∞), average [1, 4]: 56%; Intersubject variability (% CV) in Cmax, average [1, 4]: 33%; Intersubject variability (% CV) in AUC(0,∞) [1, 5]: 35-71%; Intersubject variability (% CV) in Cmax [1, 5]: 23-46%; Safety and tolerability in human subjects ([1]; recent clinical trial (Westerberg et al.)): safe and well-tolerated; half-life at 1 μM [2, 6]: 128 min; half-life at 0.2 mM (CYP1A2): 16.9 min; Effects on life span and psychomotor and histological endpoints (R6/2 mouse): statistically significant effects on life span; Neuroprotection (drosophila model of HD): neuroprotective |
| [2H]C1(C(N)=O)CCCc2c1[nH]c1ccc(Cl)cc21 (stereo not shown) [Example 2, 6-chloro-1-deutero-2,3,4,9-tetrahydro-1H-carbazole-1-carboxamide] | 0.00013 | 100.00 | 69.07% | 59.14% | 54.63% | 53.05% | 52.8 | 100 | 100.12 | 85.44 | 71.84 | 59.95 | 100.36 | 11.4 | 0.0002 | 100.00 | 48.53 | 27.30 | 17.05 | 12.99 | half-life at 1 μM [2, 6]: 152 min; half-life at 0.2 mM (CYP1A2): 17.7 min |
| [2H]C1([2H])c2c([nH]c3ccc(Cl)cc23)C(C(N)=O)C([2H])([2H])C1([2H])[2H] (stereo not shown) [Example 3, 6-chloro-2,3,4,9-tetrahydro-1H-carbazole-2,2,3,3,4,4-d6-1-carboxamide] | 0.00010 | 100.00 | 69.80% | 61.49% | 63.89% | 60.39% | 70.7 | 100 | 92.39 | 86.96 | 70.69 | 52.83 | 96.74 | 13.5 | 0.00019 | 100.00 | 45.84 | 26.01 | 17.34 | 12.82 | half-life at 1 μM [2, 6]: 128 min; half-life at 0.2 mM (CYP1A2): 17.9 min |
| O=C(c1ccc(F)cc1)C1CCN(CCn2c(=O)[nH]c3ccccc3c2=O)CC1 [Ketanserin] |  |  |  |  |  |  |  | 100 | 78.08 | 64.73 | 44.75 | 26.52 | 97.70 |  |  |  |  |  |  |  | Clint ([2]; human liver microsomes): 39.88 mL/min/kg; T1/2 [2, 6]: 43.58 min |
| Cc1ncc2n1-c1ccc(Cl)cc1C(c1ccccc1F)=NC2 [Midazolam] | >0.0014 | 100.00 | BQL | BQL | BQL | BQL |  |  |  |  |  |  |  |  |  |  |  |  |  |  | half-life at 0.2 mM (CYP3A4; recombinant enzyme): < 5 min |
| CCOc1ccc(NC(C)=O)cc1 [Phenacetin] |  |  |  |  |  |  |  |  |  |  |  |  |  |  | 0.00018 | 100.00 | 53.02 | 31.01 | 20.20 | 15.08 |  |
